Experimental data published in the NIST ThermoML archive (doi:10.1016/j.tca.2012.03.022).
Numbers after ± are expanded uncertainties.

Experiment: molar heat capacity at constant pressure; wn = mass fraction of the nth substance listed
Settings: 101 kPa, Crystal, Small sample (50 mg) DSC

[W] [tungsten] + [Cu]
molar heat capacity at constant pressure [J/K/mol]
Settings	295.15 K	373.15 K	473.15 K	573.15 K	673.15 K
w1 = 0.728	25.9 ± 1.1	26.59 ± 1.1	27.11 ± 1.2	27.43 ± 1.2	27.89 ± 1.2
w1 = 0.761	24.67 ± 1.1	25.12 ± 1.1	25.61 ± 1.1	25.91 ± 1.1	26.04 ± 1.1
w1 = 0.837	26.96 ± 1.1	27.52 ± 1.2	28.07 ± 1.2	28.41 ± 1.2	28.66 ± 1.2
w1 = 0.889	25.66 ± 1.1	26.21 ± 1.1	26.68 ± 1.1	26.95 ± 1.1	27.19 ± 1.2
w1 = 0.913	25.81 ± 1.1	26.08 ± 1.1	26.45 ± 1.1	26.75 ± 1.1	26.88 ± 1.1
